# Experimental data reported in patent US5177223A, “Indoleacetic acid derivatives, process for their preparation, and medicines containing same as active ingredients” (Zeria Pharmaceutical Co., Ltd., priority 1988, dated 1993).
# Values joined by “and” are separate entries in the source; they are usually repeats but may differ in a detail not shown here. Equal values may be shown once. Where a name gives a salt, the structure may show the parent alone. Read-outs that look alike come from different tables or passages of the source.
# Columns and labels:
# [1] = test system: gastric-acid secretion; test: Test of Inhibition of Gastric-Acid Secretion by Histamine Stimulation; format: in vivo, Male SD rats; conditions: rat
# Method: Test of Inhibition of Gastric-Acid Secretion by Histamine Stimulation
# A feeding tube (fr. 3.5) for injecting test medicines was inserted into the duodenum, and the pylorus was ligatured. A polyethylene tube (inner diameter: 7 mm) was used in the anterior stomach and gastric fistula was performed. After washing the inside of the stomach with heated physiological salt solution (37° C.) several times, the body was closed. A tube with a fin was inserted into the caudal vein and was fastened with a tape and it was connected to a infusion pump (Harvard). The rats were enclosed in a KN Ballman II cage (Natsume Seisakusho). Gastric juice flowed from the fistula was collected with a messcylinder every one hour. Starting from one hour after the operation, histamine was continuously injected at a rate of 1.4 ml/hour through the caudal vein. Then, test compounds suspended in 0.5% sodium caboxy methyl cellulose (Na-CMC) were administered one hour after the start of the histamine injection. The gastric juice thus extracted in a period from one hour after the administration of the chemical to four hours after that was titrated by using an automatic titration apparatus (Kyoto Electronic) with 0.1N NaOH to adjust pH 7, and the quantity of the gastric juice was measured to obtain the total acid output.
# [2] = test system: gastric mucosa; test: Test of Injury to Gastric Mucosa; format: in vivo, Male Wistar rats; parameters: key to Ulcer Index: ulcer index determined by the Munchow method; conditions: oral, rat; for Ulcer occurrence (%) / Ulcer Index: 5 hours; for degree of injury to the gastric mucosa: as compared with indomethacin
# Method: Test of Injury to Gastric Mucosa
# Male Wistar rats each having a body weight of about 180 to 200 g were divided into groups consisting of 10 rats and were fasted for 24 hours. After body weight of each rat has been measured, a test compound was suspended in an aqueous solution of 5% tragacanth gum and then orally administered to each rat. The rats were fasted again, and after 5 hours had passed, they were killed by cervical dislocation. A 1% formalin solution was injected into the gastric cavity of each of the rats so that it was semifixed. The gaster of each rat was cut along the greater curvature of the stomach, and the ulcer index of each rat was measured under a stereoscopic microscope and determined by the Munchow method. The Mann-Whitney U-test was applied to the statistic data processing.
# [3] = test system: carrageenin plantar edema; test: Test of Carrageenin Plantar Edema; format: in vivo, Male Wistar rats; conditions: for inhibition rate at the peak compared with that of indomethacin: 84.0 μmol/kg; for inhibition rate at the peak compared with that of indomethacin / ED50 value relative to that of indomethacin: compared with indomethacin; for ED50: read-out: Carrageenin edema ED50
# Method: Test of Carrageenin Plantar Edema
# After the body weight of each rat had been measured, the volume of the right hind-leg of the rat was measured by using an apparatus for measuring plantar volumes. The rats were then divided into groups so that the groups have the same body weight average and plantar volume average. A test compound was suspended in an aqueous solution of 5% tragacanth gum and then orally administered to each of the rats. 0.1 ml of a physiological saline of 1% carrageenin was hypodarmically injected into the sole of the right hind-leg of each rat. The volume was measured for each rat every 1 hour for 5 hours. An edema rate was determined by using a rate of increase in the volume measured after treatment to the volume measured before treatment.
# [4] = test system: ICR male mice; test: Acute Toxicity Test; format: in vivo; conditions: oral, single dose 25, 50 and 75 mg/kg each
# Method: A test compound was suspended in an aqueous solution of 5% gum arabic and then orally administered to each of 4 to 5-week old ICR male mice (Charles River Co., Ltd.) each having a body weight of 22 to 30 g in each group consisting of 3 to 4 mice, once in each of doses 25, 50, 75, 200 and 500 mg/kg.
# [5] = dose 28.0 μmol/kg (Example 5 23.0, indomethacin 10.0 mg/kg)
# [6] = dose 28.0 μmol/kg (Example 5 23.0, indomethacin 10.0 mg/kg), ** p < 0.01
# [7] = dose 84.0 μmol/kg (Example 2 64.0, Example 5 69.0, indomethacin 30.0 mg/kg)
# [8] = dose 84.0 μmol/kg (Example 2 64.0, Example 5 69.0, indomethacin 30.0 mg/kg), ** p < 0.01
# [9] = oral, rat, dose 8.4 μmol/kg (Example 2 6.4, Example 5 6.9, indomethacin 3.0 mg/kg)
# [10] = oral, rat, dose 28.0 μmol/kg (Example 5 23.0, indomethacin 10.0 mg/kg)
# [11] = oral, rat, dose 84.0 μmol/kg (Example 2 64.0, Example 5 69.0, indomethacin 30.0 mg/kg)
# [12] = dose 25.2 μmol/kg (Example 2 19.2 mg/kg)
Compound,"Ulcer occurrence (%) [2, 5] [%]","Ulcer Index [2, 6]","Ulcer occurrence (%) [2, 7] [%]","Ulcer Index [2, 8]",degree of injury to the gastric mucosa [2],"inhibition rate at the peak compared with that of indomethacin ([3]; oral, rat)","Carrageenin edema inhibition (%) rate at peak [3, 9] [%]","Carrageenin edema inhibition (%) rate at peak [3, 10] [%]","Carrageenin edema inhibition (%) rate at peak [3, 11] [%]","ED50 value relative to that of indomethacin ([3]; oral, rat)","ED50 ([3]; oral, rat)",further results
"COc1ccc2c(c1)c(CC(=O)OCCSCC(=O)NCCCOc1cccc(CN3CCCCC3)c1)c(C)n2C(=O)c1ccc(Cl)cc1 [Example 5, 2-[N-[3-[3-(piperidinomethyl)phenoxy]propyl]carbamoylmethylthio]ethyl 1-(4-chlorobenzoyl)-5-methoxy-2-methyl-3-indolylacetate maleate]",0,0.1 ± 0.01,0,0.0 ± 0.00,extremely low degree of injury,slightly higher,19.1,41.2,68.4,about 2 times,47.8 µmol/kg and 39.3 mg/kg,"Gastric-acid secretion inhibition rate (%) ([1]; dose 22 mg/kg): 47.4%; Gastric-acid secretion inhibition rate (%) ([1]; dose 44 mg/kg): 74.1%; Ulcer Index ([2]; dose 280.0 μmol/kg (Example 5 230.0 mg/kg)): 0.0 ± 0.00; Carrageenin edema inhibition (%) rate at peak ([3]; oral, rat, dose 280.0 μmol/kg (Example 5 230.0 mg/kg)): 72.7%"
"CN/C(=N/CCSCc1nc[nH]c1C)NC#N [Cimetidine, reference compound]",–,–,–,–,–,–,–,–,–,–,–,Gastric-acid secretion inhibition rate (%) ([1]; dose 30 mg/kg): 32.3%
"COc1ccc2c(c1)c(CC(=O)OCC(=O)NCCCOc1cccc(CN3CCCCC3)c1)c(C)n2C(=O)c1ccc(Cl)cc1 [Example 2, N-[3-[3-(piperidinomethyl)phenoxy]propyl]carbamoylmethyl 1-(4-chlorobenzoyl)-5-methoxy-2-methyl-3-indolylacetate maleate]",–,–,14,5.9 ± 4.92,extremely low degree of injury,slightly higher,34.9,–,62.6,substantially the same,27.8 µmol/kg and 21.1 mg/kg,"Ulcer Index [2, 12]: 1.3 ± 0.63; Ulcer occurrence (%) [2, 12]: 0%; Ulcer occurrence (%) ([2]; dose 251.9 μmol/kg (Example 2 192.0 mg/kg)): 40%; Ulcer Index ([2]; dose 251.9 μmol/kg (Example 2 192.0 mg/kg), * p < 0.05): 17.5 ± 15.84; Carrageenin edema inhibition (%) rate at peak ([3]; oral, rat, dose 25.2 μmol/kg (Example 2 19.2 mg/kg)): 50.4%"
"COc1ccc2c(c1)c(CC(=O)O)c(C)n2C(=O)c1ccc(Cl)cc1 [Indomethacin, indomethacin, reference compound]",70,46.5 ± 15.00,80,62.1 ± 16.50,–,–,49.8,59.4,55.9,–,–,"Ulcer occurrence (%) ([2]; dose 56.0 μmol/kg (indomethacin 20.0 mg/kg)): 70%; Ulcer Index ([2]; dose 56.0 μmol/kg (indomethacin 20.0 mg/kg), ** p < 0.01): 52.8 ± 17.47; death of mice [4]: all the mice in the groups, to which 25, 50 and 75 mg/kg of indomethacin were respectively administered, died; ED50 ([3]; Rattus norvegicus, po): 20.6 µmol/kg and 7.4 mg/kg; Carrageenin edema inhibition (%) rate at peak ([3]; oral, rat, dose 2.8 μmol/kg (indomethacin 1.0 mg/kg)): 24.6%"
